Data reported in US12427192B2, “Water soluble adjuvant and composition containing same” (Sumitomo Pharma Co., Ltd., priority 2019, dated 2025).

Tests used:
[1] = test system: HLA-A*02:01 transgenic mouse; test: Test 16: in vivo adjuvant activity, cocktail vaccine k (liposome formulation 1), IFNγ ELISPOT; settings: added to cocktail vaccine k (liposome formulation 1); 0.4 nmol per body, twice; FIG. 19
Protocol: (§1) Evaluation of In Vivo Adjuvant Activity in HLA-A*02:01 Transgenic Mouse
The in vivo adjuvant activity of the compound of Example 1 was evaluated in the following procedure. To a vaccine (liposome formulation 1) comprising Compound of formula 4 prepared in Reference example 8 and Peptide SEQ ID No. 3 prepared in Reference example 3 (hereinafter, referred to as “cocktail vaccine k”) was added the compound prepared in Example 1 to prepare a vaccine. The vaccine was administered to a HLA-A*02:01 transgenic mouse, and the adjuvant activity of the vaccine was evaluated by the method of testing antigen-specific CTL induction.
For example, the above liposome formulation 1 was prepared as follows. 47.1 mg of hydrogenated soybean phosphatidylcholine and 15.47 mg of cholesterol were dissolved in t-butyl alcohol, and the mixture was lyophilized. […]
Cocktail vaccine k was injected to mice intradermally at the tail base area in an amount for administering 500 μg of Compound of formula 4 per body and 375 μg of Peptide SEQ ID No. 3 per body. […] Then, after removal of the supernatant from the wells, stained spots on the ELISPOT plate were counted.

[2] = test system: HLA-A*02:01 transgenic mouse; test: Test 18: in vivo adjuvant activity, cocktail vaccine m (liposome formulation 3), IFNγ ELISPOT; settings: added to cocktail vaccine m (liposome formulation 3); 0.4 nmol per body, twice; FIG. 22
Protocol: as §1
The in vivo adjuvant activity of the compound of Example 1 was evaluated in the following procedure. To a vaccine (liposome formulation 3) comprising Compound of formula 4 prepared in Reference example 8 and Peptide SEQ ID No. 3 prepared in Reference example 3 (hereinafter, referred to as “cocktail vaccine m”) was added the compound prepared in Example 1 to prepare a vaccine. The vaccine was administered to a HLA-A*02:01 transgenic mouse, and the adjuvant activity of the vaccine was evaluated by the method of testing antigen-specific CTL induction.
For example, the above liposome formulation 3 was prepared as follows. 36.7 mg of 1,2-dipalmitoyl-sn-glycero-3-phosphocholine, 7.58 mg of 1,2-dipalmitoyl-sn-glycero-3-phospho-L-serine sodium salt, and 15.47 mg of cholesterol were dissolved in t-butyl alcohol/water mixture, and the mixture was lyophilized. […]
Cocktail vaccine m was injected to mice intradermally at the tail base area in an amount for administering 500 μg of Compound of formula 4 per body and 375 μg of Peptide SEQ ID No. 3 per body. […] Then, after removal of the supernatant from the wells, stained spots on the ELISPOT plate were counted.

CCCCCNc1nc(N)nc(C)c1Cc1ccc(CN(C)CCOCCOCCOCCOCCO)cc1OC [Example 1, 1-(4-{[2-amino-4-methyl-6-(pentylamino)pyrimidin-5-yl]methyl}-3-methoxyphenyl)-2-methyl-5,8,11,14-tetraoxa-2-azahexadecan-16-ol·trifluoroacetate]
CTL counts responsive to Peptide SEQ ID No. 1 compared with adding no compound [1]: more
CTL counts responsive to Peptide SEQ ID No. 1 compared with adding no compound [2]: more
